“Also recorded” adds a separate entry of the source.
Assays:
PC12^rtTA cells = test: p75NTR- or NRAGE-induced cell death of PC12rtTA cells (LDH release assay); type: cell-based; conditions: for protection from Adp75- or AdNRG-induced cell death: increasing concentrations, LDH
Method: FIGS. 2A and 2B are graphs showing that compound 1 inhibits p75NTR or NRAGE induced JNK activation and cell death. Compound 1 inhibits NRAGE (A) or p75NTR (B) mediated cell death. PC12^rtTA cells were infected with recombinant adenoviruses expressing full-length NRAGE (AdNRG) at 5 MOI, full length p75NTR (Adp75) at 50 or 100 MOI, or the control protein β-galactosidase (AdLacZ) (at 5 MOI in (A) and 50 MOI in (B)). At time of infection, the cells were treated with an increasing concentration of compound 1, or with vehicle alone, as indicated. After 40 hours, cells were assayed for death using the lactate dehydrogenase (LDH) assay; untreated cells (Un) and cells treated with 1% Triton X-100 (Tx) were used to delineate the output range of the assay. Results are normalized relative to those obtained with 1% Triton (Tx), and represent the mean±standard deviation of a representative experiment performed in triplicate (*=P<0.005 relative to no compound 1).
PC12^rtTA were infected with adenoviruses encoding p75NTR (Adp75), NRAGE (AdNRG), or as a control, LacZ (AdLacZ), and were concurrently exposed to increasing concentrations of compound 1 for a period of 40 hours. Cell death was assessed using an LDH release assay. […] Treatment with 40 μM compound 1 reduced p75NTR- or NRAGE-induced cell death by greater than 90%.
(§1) Cell culture, infection, transfection and immunoblotting. Sympathetic neurons were maintained and deprived of NGF as previously described (Bamji et al., 1998; Ma et al., 1992). PC12^rtTA cells were maintained and infected as previously described (Majdan et al., 1997; Salehi et al., 2002); for NRAGE, […] doxycycline was added to all plates at time of infection. Wildtype and HSF1 nullizygous immortalized mouse embryonic fibroblasts (MEFs) were maintained in DMEM containing 10% fetal calf serum, 1 μM β-mercaptoethanol, 1% non-essential amino acids, 1% L-glutamine, 1% antimycotic solution and 1% sodium pyruvate (all from GibcoBRL). Sympathetic neuron survival was assessed using the MTS assay according to the manufacturer's instructions (Promega). Analysis of PC12 cell death was determined using a lactate dehydrogenase (LDH) assay (Roche) as per the manufacturer's instructions. Transfections using plasmids or RNAi were performed using Lipofectamine 2000. Immunoblotting was performed as previously described (Majdan et al., 1997; Salehi et al., 2002).

SCG neurons = test: NGF-withdrawal induced cell death of SCG neurons (MTS assay); type: cell-based, rat; conditions: SCG neurons withdrawn from NGF, 48 hours
Method: FIG. 1 is a graph showing that compound 1 inhibits NGF-withdrawal induced cell death. Cultures of rat SCG neurons (see Materials and Methods) initially maintained in 10 ng/ml of NGF were withdrawn from NGF and maintained in media containing compound 1 at the concentrations indicated for 48 hours. Cellular viability was assayed using an MTS assay. (*=P<0.01 relative to no compound 1). Experiments were performed three times with identical results.
Survival of neonatal primary sympathetic neurons is dependent on trophic support provided by Neuronal Growth Factor (NGF) (reviewed in (Young et al., 2004)).
as §1

HSP70 promoter = HSP70 promoter reporter transcriptional assay in MEFs (luciferase); type: cell-based, mouse
Method: FIGS. 5B and 5C are photographs of Western blots showing that compound 1 binds HSP90 and causes HSF1-dependent expression of HSP70 and HSP25. A: Wild-type or HSF1 null MEFs were transfected with pGL3B-HSP70, an HSP70 promoter reporter construct, or parental vector (pGL3B), then treated with 40 μM of compound 1 for 24 hours and analyzed for luciferase content as described in Materials and Methods (*=P<0.005 relative to 0 compound 1; **=P<0.005 relative to wild-type MEFs treated with 40 uM compound 1. B: Wild-type or HSF1 null MEFs were treated with increasing concentrations of compound 1 for 24 hours, cells were lysed, normalized for protein content, and analyzed for levels of HSP70, HSP40, and HSP25 as indicated. C: Compound 6-conjugated Sepharose beads were incubated with purified HSP90 for 2 hours, washed, and levels of bound HSP90 were analyzed by immunoblot. Con=Control beads, Alone=Compound 6-beads alone, Comp=[…]+competing compound 1 (at 80 μM). Experiments in Panel A-C were performed three times with identical results.
Induction of cell stress results in the interaction of HSP90 with misfolded proteins and disrupts its association with HSF1, allowing it to bind and activate HSP70 and HSP25 promoters (Sanchez-Perez and Perona, 1999). […]

SMILES	protection from Adp75- or AdNRG-induced cell death (PC12^rtTA cells; 40 hours)	protection from NGF-withdrawal induced cell death (SCG neurons)	reduction of p75NTR- or NRAGE-induced cell death (PC12^rtTA cells; 40 μM, 40 hours, LDH release)	toxic effect in cells infected with the LacZ control (PC12^rtTA cells; 80 μM)	inhibition of p75NTR- or NRAGE-induced apoptosis (PC12^rtTA cells; 80 μM (highest concentration tested))	transcriptional activity of the HSP70 promoter reporter construct (HSP70 promoter; MEFs lacking HSF1, 40 μM)	transcriptional activity of the HSP70 promoter reporter construct (HSP70 promoter; wild-type MEFs, 40 μM)
NS(=O)(=O)c1nn2cc(-c3ccc(N4CCOCC4)cc3)nc2s1 [Compound 2]	protected	protected					
NS(=O)(=O)c1nn2cc(-c3ccccc3)nc2s1 [Compound 1]	strongly attenuated; also recorded: protected	protected; also recorded: inhibits	greater than 90%	slight toxic effect	effectively inhibited apoptosis	remained at baseline	strongly induced
